What was measured:
Format in all cases: cell-based, human
TTR [1] = assay: TTR editing in HUH7 cells transfected with Spy Cas9 mRNA and dgRNAs (Table 5); details: HUH7 cells co-transfected with Spy Cas9 mRNA (SEQ ID NO:2) and dgRNAs
How it was run: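 Percent editing is the share of NGS reads at the TTR target carrying insertions, deletions or substitutions, from amplicon sequencing of genomic DNA harvested at 24, 48 or 72 h. HUH7 cells first received Cas9 mRNA (100 ng) by lipofection, then dual-guide RNA (crRNA and tracer, 25 nM each).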

TTR [2] = assay: TTR editing in HepG2 cells transfected with Spy Cas9 mRNA and dgRNAs (Table 6); details: HepG2 cells co-transfected with Spy Cas9 mRNA (SEQ ID NO:2) and dgRNAs
How it was run: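 Percent editing is the share of sequencing reads at the TTR target locus that carry insertions, deletions or substitutions, measured by Illumina amplicon sequencing aligned to hg38. Samples came from HepG2 cells lipofected first with 100 ng Cas9 mRNA and then with dual-guide RNA (25 nM crRNA/tracer), collected 24–72 h later.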

off-target genomic sites = assay: Off-target oligo insertion based assay in HEK293_Cas9 cells, dgRNAs and sgRNAs (Tables 23, 24); details: Table 23; TTR dgRNAs in HekCas9 cells, oligo insertion based assay
How it was run: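 In HEK293 cells constitutively expressing Spy Cas9, crRNA (15 nM) plus trRNA (15 nM), or modified sgRNAs, were lipofected with donor oligo (10 nM). Genomic DNA was collected at 24 h, and oligo-insertion libraries were sequenced on MiSeq/HiSeq to map potential off-target cleavage sites.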

Q: With “CCUCCUCUGCCUUGCUGGAC (tested as dual guide RNA, chemistry not given here) [CR003336]” as the sequence, how does the “Avg % Deletion” value (TTR [1]) read?
A: Its value is 26.56%.

Q: What about the “Avg % Edit” value (TTR [1]) of the same sequence?
A: The value was 30.05%.

Q: What about the “Avg % Insert” value (TTR [1]) of the same sequence?
A: Its value is 4.14%.

Q: What about the “Avg % Deletion” value (TTR [2]) of the same sequence?
A: Its value is 0.83%.

Q: And the “Avg % Edit” value (TTR [2])?
A: The value was 31.31%.

Q: What about the “Avg % Insert” value (TTR [2]) of the same sequence?
A: Its value is 30.48%.

Q: What about the “# Sites (off-target integration sites detected)” value (shortened to “# Sites”) (off-target genomic sites) of the same sequence?
A: The value was 2.

Q: For “AAGUGCCUUCCAGUAAGAUU (tested as dual guide RNA, chemistry not given here) [CR003368]”, which “Avg % Deletion” value (TTR [1]) is on record?
A: The value was 29.69%.

Q: What about the “Avg % Edit” value (TTR [1]) of the same sequence?
A: Its value is 31.57%.

Q: And the “Avg % Insert” value (TTR [1])?
A: The value was 3.08%.

Q: And the “Avg % Deletion” value (TTR [2])?
A: Its value is 3.22%.

Q: What about the “Avg % Edit” value (TTR [2]) of the same sequence?
A: The value was 51.55%.

Q: What about the “Avg % Insert” value (TTR [2]) of the same sequence?
A: Its value is 48.34%.

Q: What about the “# Sites” value (off-target genomic sites) of the same sequence?
A: Its value is 2.

Q: For “GUGAGUCUGGAGAGCUGCAU (tested as dual guide RNA, chemistry not given here) [CR003360]”, which “Avg % Deletion” value (TTR [1]) is on record?
A: Its value is 55.13%.

Q: What about the “Avg % Edit” value (TTR [1]) of the same sequence?
A: The value was 58.62%.

Q: And the “Avg % Insert” value (TTR [1])?
A: The value was 5.01%.

Q: What about the “Avg % Deletion” value (TTR [2]) of the same sequence?
A: Its value is 2.38%.

Q: And the “Avg % Edit” value (TTR [2])?
A: Its value is 41.31%.

Q: What about the “Avg % Insert” value (TTR [2]) of the same sequence?
A: Its value is 38.94%.

Q: And the “# Sites” value (off-target genomic sites)?
A: The value was 0.

Q: What does the source list for “CCCAGAGGCAAAUGGCUCCC (tested as dual guide RNA, chemistry not given here) [CR003355]”?
A: Avg % Deletion (TTR [1]): 30.31%; Avg % Edit (TTR [1]): 38.83%; Avg % Insert (TTR [1]): 9.40%; Avg % Deletion (TTR [2]): 3.44%; Avg % Edit (TTR [2]): 15.80%; Avg % Insert (TTR [2]): 12.36%; # Sites (off-target integration sites detected) (off-target genomic sites): 1

Q: “UUUGACCAUCAGAGGACACU (tested as dual guide RNA, chemistry not given here) [CR003344]” was tested. Which “Avg % Deletion” value (TTR [1]) did it give?
A: Its value is 54.40%.

Q: What about the “Avg % Edit” value (TTR [1]) of the same sequence?
A: The value was 64.02%.

Q: What about the “Avg % Insert” value (TTR [1]) of the same sequence?
A: The value was 10.76%.

Q: What about the “Avg % Deletion” value (TTR [2]) of the same sequence?
A: Its value is 3.62%.

Q: And the “Avg % Edit” value (TTR [2])?
A: The value was 33.43%.

Q: And the “Avg % Insert” value (TTR [2])?
A: The value was 29.81%.

Q: What about the “# Sites” value (off-target genomic sites) of the same sequence?
A: The value was 0.

Q: With “AGUGAGUCUGGAGAGCUGCA (tested as dual guide RNA, chemistry not given here) [CR003359]” as the sequence, how does the “Avg % Deletion” value (TTR [1]) read?
A: Its value is 45.97%.

Q: And the “Avg % Edit” value (TTR [1])?
A: The value was 66.75%.

Q: What about the “Avg % Insert” value (TTR [1]) of the same sequence?
A: Its value is 21.73%.

Q: What about the “Avg % Deletion” value (TTR [2]) of the same sequence?
A: Its value is 15.65%.

Q: And the “Avg % Edit” value (TTR [2])?
A: Its value is 64.44%.

Q: And the “Avg % Insert” value (TTR [2])?
A: Its value is 48.79%.

Q: And the “# Sites” value (off-target genomic sites)?
A: The value was 6.

Reference: patent US11795460B2, “Compositions and methods for TTR gene editing and treating ATTR amyloidosis” (Intellia Therapeutics, Inc., priority 2017, dated 2023)
